Data reported in patent publication US9539260B2, “Dihydro-benzo-oxazine and dihydro-pyrido-oxazine derivatives” (Novartis AG, priority 2012, dated 2017).

Legend:
[1] = target: PI3K alpha (Homo sapiens (Human), UniProt P42336); assay: Enzymatic PI3K alpha isoform inhibition (lipid kinase activity, Kinase-Glo luminescence); format: biochemical; conditions: Enzymatic assay
Experimental: (§1) 1.1 Test of Lipid Kinase Activity […]
(§2) In a more preferred assay, the kinase reaction is performed in a final volume of 10 μl per well of a low volume non-binding CORNING, 384 well black plate (Cat. No. #3676). The final concentrations of ATP and phosphatidyl inositol (PI) in the assay are 1 μM and 10 μg/mL, respectively. The reaction is started by the addition of ATP.
(§3) The components of the assay are added per well as follows:
(§4) The Z′ value is a universal measurement of the robustness of an assay. A Z′ between 0.5 and 1.0 is considered an excellent assay.
(§5) IC50 is determined by a four parameter curve fitting routine that comes along with “excel fit”. A four parameter logistic equation is used to calculate IC50 values (IDBS XLfit) of the percentage inhibition of each compound at 8 concentrations (usually 10, 3.0, 1.0, 0.3, 0.1, 0.030, 0.010 and 0.003 μM). Alternatively, IC50 values are calculated using idbsXLfit model 204, which is a 4 parameter logistic model.
(§6) Yet alternatively, for an ATP depletion assay, compounds of the formula I to be tested are dissolved in DMSO and directly distributed into a white 384-well plate at 0.5 μl per well. To start the reaction, 10 μl of 10 nM PI3 kinase and 5 μg/mL 1-alpha-phosphatidylinositol (PI) are added into each well followed by 10 μl of 2 μM ATP. The reaction is performed until approx 50% of the ATP is depleted, and then stopped by the addition of 20 μl of Kinase-Glo solution (Promega Corp., Madison, Wis., USA). The stopped reaction is incubated for 5 minutes and the remaining ATP is then detected via luminescence. IC50 values are then determined.

[2] = target: PI3K delta (Homo sapiens (Human), UniProt O00329); assay: Enzymatic PI3K delta isoform inhibition (lipid kinase activity, Kinase-Glo luminescence); format: biochemical; conditions: Enzymatic assay
Experimental: as §1, §2, §3, §4, §5, §6

PI3K delta, sequence (O00329 other isoform, or with tags, fused parts or gaps linker GGGGGG): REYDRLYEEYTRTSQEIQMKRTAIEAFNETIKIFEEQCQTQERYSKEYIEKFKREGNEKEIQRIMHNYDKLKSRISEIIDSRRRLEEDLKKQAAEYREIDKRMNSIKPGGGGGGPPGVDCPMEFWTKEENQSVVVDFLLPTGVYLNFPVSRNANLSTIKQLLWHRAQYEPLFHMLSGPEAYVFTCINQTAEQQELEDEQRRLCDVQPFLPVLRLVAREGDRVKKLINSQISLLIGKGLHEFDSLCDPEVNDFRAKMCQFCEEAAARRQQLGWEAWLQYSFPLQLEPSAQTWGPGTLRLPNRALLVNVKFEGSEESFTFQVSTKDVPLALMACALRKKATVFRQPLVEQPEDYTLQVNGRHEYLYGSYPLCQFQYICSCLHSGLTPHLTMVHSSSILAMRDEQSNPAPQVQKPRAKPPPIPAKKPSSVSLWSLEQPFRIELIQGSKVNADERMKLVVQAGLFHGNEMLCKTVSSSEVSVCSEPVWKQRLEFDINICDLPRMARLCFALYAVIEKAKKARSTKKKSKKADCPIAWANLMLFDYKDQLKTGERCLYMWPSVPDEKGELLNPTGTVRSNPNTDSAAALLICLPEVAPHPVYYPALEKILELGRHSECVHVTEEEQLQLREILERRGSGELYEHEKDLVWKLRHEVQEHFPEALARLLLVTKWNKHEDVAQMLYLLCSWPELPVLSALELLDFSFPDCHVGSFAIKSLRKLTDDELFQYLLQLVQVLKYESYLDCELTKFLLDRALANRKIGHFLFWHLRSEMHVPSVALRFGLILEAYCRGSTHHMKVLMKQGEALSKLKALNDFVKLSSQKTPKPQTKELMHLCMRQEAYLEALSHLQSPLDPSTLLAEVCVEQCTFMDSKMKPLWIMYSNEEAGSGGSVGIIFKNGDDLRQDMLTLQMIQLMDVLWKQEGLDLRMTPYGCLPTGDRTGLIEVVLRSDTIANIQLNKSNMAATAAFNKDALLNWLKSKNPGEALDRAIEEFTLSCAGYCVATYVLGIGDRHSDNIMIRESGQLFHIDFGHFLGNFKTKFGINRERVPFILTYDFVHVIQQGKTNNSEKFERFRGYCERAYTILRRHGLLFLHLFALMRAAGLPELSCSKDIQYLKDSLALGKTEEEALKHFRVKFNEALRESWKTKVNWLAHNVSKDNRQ
PI3K alpha, sequence (P42336 other isoform, or with tags, fused parts or gaps): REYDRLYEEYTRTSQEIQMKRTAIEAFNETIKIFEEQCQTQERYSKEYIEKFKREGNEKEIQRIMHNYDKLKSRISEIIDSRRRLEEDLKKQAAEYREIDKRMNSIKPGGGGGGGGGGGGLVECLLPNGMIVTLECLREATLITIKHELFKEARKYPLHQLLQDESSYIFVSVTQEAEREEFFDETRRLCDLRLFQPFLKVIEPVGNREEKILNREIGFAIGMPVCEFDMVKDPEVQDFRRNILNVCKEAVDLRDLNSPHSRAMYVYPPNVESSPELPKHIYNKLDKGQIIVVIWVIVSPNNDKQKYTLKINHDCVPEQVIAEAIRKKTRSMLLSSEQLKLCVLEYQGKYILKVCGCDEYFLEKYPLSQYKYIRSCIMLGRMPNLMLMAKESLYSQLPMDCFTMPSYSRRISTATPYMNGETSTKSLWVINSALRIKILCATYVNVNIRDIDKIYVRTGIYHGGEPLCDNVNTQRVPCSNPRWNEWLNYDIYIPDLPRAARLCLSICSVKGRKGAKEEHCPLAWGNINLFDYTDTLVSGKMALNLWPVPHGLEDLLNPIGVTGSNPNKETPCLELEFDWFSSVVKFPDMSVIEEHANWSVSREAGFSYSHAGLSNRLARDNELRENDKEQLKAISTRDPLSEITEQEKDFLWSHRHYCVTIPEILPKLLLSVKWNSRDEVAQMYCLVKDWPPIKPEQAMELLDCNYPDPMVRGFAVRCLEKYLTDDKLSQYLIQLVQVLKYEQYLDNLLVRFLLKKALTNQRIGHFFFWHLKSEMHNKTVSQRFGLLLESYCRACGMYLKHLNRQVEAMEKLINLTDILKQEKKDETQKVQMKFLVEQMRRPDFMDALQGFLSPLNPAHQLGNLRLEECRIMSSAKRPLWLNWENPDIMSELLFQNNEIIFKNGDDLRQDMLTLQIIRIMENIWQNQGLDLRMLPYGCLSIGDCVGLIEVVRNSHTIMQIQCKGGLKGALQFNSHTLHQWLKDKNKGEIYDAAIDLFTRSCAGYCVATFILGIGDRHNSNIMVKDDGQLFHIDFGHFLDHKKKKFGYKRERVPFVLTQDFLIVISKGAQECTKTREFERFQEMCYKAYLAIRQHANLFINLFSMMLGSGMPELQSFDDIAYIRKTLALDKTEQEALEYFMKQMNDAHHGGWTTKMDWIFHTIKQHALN

SMILES | IC50 [1] | IC50 [2]
CCC(=O)N1CC[C@H](Oc2ccc3c(c2)N(c2ccc(OC)c(S(=O)(=O)NOC)c2)CCO3)C1 [Example A31, 2,N-Dimethoxy-5-[6-((S)-1-propionyl-pyrrolidin-3-yloxy)-2,3-dihydro-benzo[1,4]oxazin-4-yl]-benzenesulfonamide] | 6020 nM | 88 nM
CCC(=O)N1CC[C@H](Oc2ccc3c(c2)N(c2cncc(C#N)c2)CCO3)C1 [Example A32, 5-[6-((S)-1-Propionyl-pyrrolidin-3-yloxy)-2,3-dihydro-benzo[1,4]oxazin-4-yl]-nicotinonitrile] | 3200 nM | 74 nM
COc1cncc(N2CCOc3ccc(O[C@H]4CCN(C(=O)C5CCOCC5)C4)cc32)c1 [Example A33, {(S)-3-[4-(5-Methoxy-pyridin-3-yl)-3,4-dihydro-2H-benzo[1,4]oxazin-6-yloxy]-pyrrolidin-1-yl}-(tetrahydro-pyran-4-yl)-methanone] | 1700 nM | 85 nM
O=C(C1CCOCC1)N1CC[C@H](Oc2ccc3c(c2)N(c2cncc(Cl)c2)CCO3)C1 [Example A34, {(S)-3-[4-(5-Chloro-pyridin-3-yl)-3,4-dihydro-2H-benzo[1,4]oxazin-6-yloxy]-pyrrolidin-1-yl}-(tetrahydro-pyran-4-yl)-methanone] | 773 nM | 9 nM
CCC(=O)N1CC[C@H](Oc2ccc3c(c2)N(c2ccc(OC)c(OC)c2)CCO3)C1 [Example A35, 1-{(S)-3-[4-(3,4-Dimethoxy-phenyl)-3,4-dihydro-2H-benzo[1,4]oxazin-6-yloxy]-pyrrolidin-1-yl}-propan-1-one] | 5590 nM | 1420 nM
CCC(=O)N1CC[C@H](Oc2ccc3c(c2)N(c2cnc4ccccc4c2)CCO3)C1 [Example A36, 1-[(S)-3-(4-Quinolin-3-yl-3,4-dihydro-2H-benzo[1,4]oxazin-6-yloxy)-pyrrolidin-1-yl]-propan-1-one] | 1270 nM | 78 nM
CCC(=O)N1CC[C@H](Oc2ccc3c(c2)N(c2cncc(S(C)(=O)=O)c2)CCO3)C1 [Example A37, 1-{(S)-3-[4-(5-Methanesulfonyl-pyridin-3-yl)-3,4-dihydro-2H-benzo[1,4]oxazin-6-yloxy]-pyrrolidin-1-yl}-propan-1-one] | 370 nM | 78 nM
CCC(=O)N1CC[C@H](Oc2ccc3c(c2)N(c2cncc(C(F)(F)F)c2)CCO3)C1 [Example A38, 1-{(S)-3-[4-(5-Trifluoromethyl-pyridin-3-yl)-3,4-dihydro-2H-benzo[1,4]oxazin-6-yloxy]-pyrrolidin-1-yl}-propan-1-one] | 343 nM | 64 nM
CCC(=O)N1CC[C@H](Oc2ccc3c(c2)N(c2cncc(S(=O)(=O)N(C)C)c2)CCO3)C1 [Example A39, 5-[6-((S)-1-Propionyl-pyrrolidin-3-yloxy)-2,3-dihydro-benzo[1,4]oxazin-4-yl]-pyridine-3-sulfonic acid dimethylamide] | 71 nM | 9 nM
CCC(=O)N1CC[C@H](Oc2ccc3c(c2)N(c2ccc(C)c(C#N)c2)CCO3)C1 [Example A40, 2-Methyl-5-[6-((S)-1-propionyl-pyrrolidin-3-yloxy)-2,3-dihydro-benzo[1,4]oxazin-4-yl]-benzonitrile] | 5360 nM | 462 nM
CCC(=O)N1CC[C@H](Oc2ccc3c(c2)N(c2ccc(OC)c(C(F)(F)F)c2)CCO3)C1 [Example A41, 1-{(S)-3-[4-(4-Methoxy-3-trifluoromethyl-phenyl)-3,4-dihydro-2H-benzo[1,4]oxazin-6-yloxy]-pyrrolidin-1-yl}-propan-1-one] | 2790 nM | 296 nM
COc1ncc(N2CCOc3ccc(O[C@H]4CCN(C(=O)C5CCS(=O)(=O)C5)C4)cc32)cc1C (stereo partly drawn) [Example B13, (1,1-Dioxo-tetrahydro-1lambda*6*-thiophen-3-yl)-{(S)-3-[4-(6-methoxy-5-methyl-pyridin-3-yl)-3,4-dihydro-2H-benzo[1,4]oxazin-6-yloxy]-pyrrolidin-1-yl}-methanone] | 862 nM | 62 nM

Other lines, results leading:

IC50 [1] | IC50 [2] | SMILES
1140 nM | 30 nM | O=C(C1CCOCC1)N1CC[C@H](Oc2ccc3c(c2)N(c2ccc(C(F)(F)F)nc2)CCO3)C1 [Example A42, (Tetrahydro-pyran-4-yl)-{(S)-3-[4-(6-trifluoromethyl-pyridin-3-yl)-3,4-dihydro-2H-benzo[1,4]oxazin-6-yloxy]-pyrrolidin-1-yl}-methanone]
4690 nM | 54 nM | CS(=O)(=O)c1ccc(N2CCOc3ccc(O[C@H]4CCN(C(=O)C5CCOCC5)C4)cc32)cn1 [Example A43, {(S)-3-[4-(6-Methanesulfonyl-pyridin-3-yl)-3,4-dihydro-2H-benzo[1,4]oxazin-6-yloxy]-pyrrolidin-1-yl}-(tetrahydro-pyran-4-yl)-methanone]
1640 nM | 26 nM | CCOc1ncc(N2CCOc3ccc(O[C@H]4CCN(C(=O)C5CCOCC5)C4)cc32)cc1C [Example B2, {(S)-3-[4-(6-Ethoxy-5-methyl-pyridin-3-yl)-3,4dihydro-2H-benzo[1,4]oxazin-6-yloxy]-pyrrolidin-1-yl}-(tetrahydro-pyran-4-yl)-methanone]
1230 nM | 83 nM | CCC(=O)N1CC[C@H](Oc2ccc3c(c2)N(c2cnc(OC)c(OC)c2)CCO3)C1 [Example B4, 1-{(S)-3-[4-(5,6-Dimethoxy-pyridin-3-yl)-3,4-dihydro-2H-benzo[1,4]oxazin-6-yloxy]-pyrrolidin-1-yl}-propan-1-one]
236 nM | 25 nM | CCC(=O)N1CC[C@H](Oc2ccc3c(c2)N(c2cncc(S(=O)(=O)C(C)C)c2)CCO3)C1 [Example B5, 1-((S)-3-{4-[5-(Propane-2-sulfonyl)-pyridin-3-yl]-3,4-dihydro-2H-benzo[1,4]oxazin-6-yloxy}-pyrrolidin-1-yl)-propan-1-one]
3540 nM | 114 nM | CC[S+]([O-])c1ccc(N2CCOc3ccc(O[C@H]4CCN(C(=O)C5CCOCC5)C4)cc32)cn1 (stereo partly drawn) [Example B7, {(S)-3-[4-(6-Ethanesulfinyl-pyridin-3-yl)-3,4-dihydro-2H-benzo[1,4]oxazin-6-yloxy]-pyrrolidin-1-yl}-(tetrahydro-pyran-4-yl)-methanone]
188 nM | 25 nM | Cc1cc(N2CCOc3ccc(O[C@H]4CCN(C(=O)c5cn(C)cn5)C4)cc32)cnc1S(C)(=O)=O [Example B8, {(S)-3-[4-(6-Methanesulfonyl-5-methyl-pyridin-3-yl)-3,4-dihydro-2H-benzo[1,4]oxazin-6-yloxy]-pyrrolidin-1-yl}-(1-methyl-1H-imidazol-4-yl)-methanone]
1770 nM | 78 nM | COc1cc(N2CCOc3ccc(O[C@H]4CCN(C(=O)C5CCOCC5)C4)cc32)cnc1S(C)(=O)=O [Example B9, {(S)-3-[4-(6-Methanesulfonyl-5-methoxy-pyridin-3-yl)-3,4-dihydro-2H-benzo[1,4]oxazin-6-yloxy]-pyrrolidin-1-yl}-(tetrahydro-pyran-4-yl)-methanone]
823 nM | 14 nM | COc1ncc(N2CCOc3ccc(O[C@H]4CCN(C(=O)C5CCS(=O)(=O)CC5)C4)cc32)cc1F [Example B11, (1,1-Dioxo-hexahydro-1lambda*6*-thiopyran-4-yl)-{(S)-3-[4-(5-fluoro-6-methoxy-pyridin-3-yl)-3,4-dihydro-2H-benzo[1,4]oxazin-6-yloxy]-pyrrolidin-1-yl}-methanone]
365 nM | 11 nM | COc1ncc(N2CCOc3ccc(O[C@H]4CCN(C(=O)C5CCS(=O)(=O)CC5)C4)cc32)cc1Cl [Example B12, {(S)-3-[4-(5-Chloro-6-methoxy-pyridin-3-yl)-3,4-dihydro-2H-benzo[1,4]oxazin-6-yloxy]-pyrrolidin-1-yl}-(1,1-dioxo-hexahydro-1lambda*6*-thiopyran-4-yl)-methanone]
244 nM | 6 nM | COc1ncc(N2CCOc3ccc(O[C@H]4CCN(C(=O)C5CCS(=O)(=O)CC5)C4)cc32)cc1C(F)(F)F [Example B14, (1,1-Dioxo-hexahydro-1lambda*6*-thiopyran-4-yl)-{(S)-3-[4-(6-methoxy-5-trifluoromethyl-pyridin-3-yl)-3,4-dihydro-2H-benzo[1,4]oxazin-6-yloxy]-pyrrolidin-1-yl}-methanone]
2650 nM | 31 nM | COc1ncc(N2CCOc3ccc(O[C@H]4CCN(C(=O)C5CCOC5)C4)cc32)cc1C (stereo partly drawn) [Example B15, {(S)-3-[4-(6-Methoxy-5-methyl-pyridin-3-yl)-3,4-dihydro-2H-benzo[1,4]oxazin-6-yloxy]-pyrrolidin-1-yl}-(tetrahydro-furan-3-yl)-methanone]
4120 nM | 37 nM | COc1ncc(N2CCOc3ccc(O[C@H]4CCN(C(=O)C5CCOC5)C4)cc32)cc1C (stereo partly drawn) [Example B16, {(S)-3-[4-(6-Methoxy-5-methyl-pyridin-3-yl)-3,4-dihydro-2H-benzo[1,4]oxazin-6-yloxy]-pyrrolidin-1-yl}-(tetrahydro-furan-3-yl)-methanone]
